Activity calls are given as the source filed them. No cut-off for these calls is given here. Where a SMILES comes first, the peptide text is derived from it. [ ]: non-standard residue; d: D form. The star is where a group is joined. X4 = O=C(O)CCCCCCCCCCCCCCCCCCC(=O)NCCOCCOCC(=O)N[C@@H](CCC(=O)N[C@@H](CCC(=O)N[C@@H](CCCCNC(=O)C*)C(=O)O)C(=O)O)C(=O)O; X3 = O=C(O)CCCCCCCCCCCCCCCCC(=O)NCCOCCOCC(=O)N[C@@H](CCC(=O)N[C@@H](CCC(=O)N[C@@H](CCCCNC(=O)C*)C(=O)O)C(=O)O)C(=O)O; X5 = O=C(O)CCCCCCCCCCCCCCCCCCC(=O)N[C@@H](CCC(=O)NCCOCCOCC(=O)NCCOCCOCC(=O)N[C@@H](CCCCNC(=O)C*)C(=O)O)C(=O)O; Aib = CC(C)(N)C(=O)O
Assays:
[1] = biological target: T1, Gastric inhibitory polypeptide receptor (Homo sapiens, UniProt P48546); assay: Agonist activity at human GIPR expressed in CHO cells assessed as increase in cAMP production incubated for 30 mins by Eu-cAMP tracer based microplate reader analysis; assay type: functional, cell-based
T1 sequence (P48546 whole entry): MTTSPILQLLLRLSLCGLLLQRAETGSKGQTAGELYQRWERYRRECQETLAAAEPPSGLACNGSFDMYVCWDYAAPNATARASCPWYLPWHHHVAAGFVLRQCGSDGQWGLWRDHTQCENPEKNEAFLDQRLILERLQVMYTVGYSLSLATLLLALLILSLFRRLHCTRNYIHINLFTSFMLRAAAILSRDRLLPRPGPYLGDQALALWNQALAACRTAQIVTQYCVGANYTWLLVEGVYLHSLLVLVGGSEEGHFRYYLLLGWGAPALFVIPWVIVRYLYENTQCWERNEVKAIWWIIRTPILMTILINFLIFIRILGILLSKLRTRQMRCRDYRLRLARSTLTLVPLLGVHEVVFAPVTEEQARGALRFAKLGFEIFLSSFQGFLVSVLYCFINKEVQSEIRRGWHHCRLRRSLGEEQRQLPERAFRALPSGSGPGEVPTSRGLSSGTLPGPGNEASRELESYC

[2] = biological target: Glucagon-like peptide 1 receptor (Homo sapiens, UniProt P43220); assay: Agonist activity at human GLP-1R expressed in CHO cells assessed as increase in cAMP production incubated for 30 mins by Eu-cAMP tracer based microplate reader analysis; assay type: functional, cell-based
Mus musculus = assay: Glucose-lowering effect in male ICR mouse assessed as reduction in plasma glucose AUC (0 to 72 hrs) at 30 nmol/kg, sc pretreated for 71 hrs followed by […] administration and measured after 60 mins by oral glucose tolerance test; assay type: functional, organism-based

Glucagon-like peptide 1 receptor, sequence (P43220 whole entry): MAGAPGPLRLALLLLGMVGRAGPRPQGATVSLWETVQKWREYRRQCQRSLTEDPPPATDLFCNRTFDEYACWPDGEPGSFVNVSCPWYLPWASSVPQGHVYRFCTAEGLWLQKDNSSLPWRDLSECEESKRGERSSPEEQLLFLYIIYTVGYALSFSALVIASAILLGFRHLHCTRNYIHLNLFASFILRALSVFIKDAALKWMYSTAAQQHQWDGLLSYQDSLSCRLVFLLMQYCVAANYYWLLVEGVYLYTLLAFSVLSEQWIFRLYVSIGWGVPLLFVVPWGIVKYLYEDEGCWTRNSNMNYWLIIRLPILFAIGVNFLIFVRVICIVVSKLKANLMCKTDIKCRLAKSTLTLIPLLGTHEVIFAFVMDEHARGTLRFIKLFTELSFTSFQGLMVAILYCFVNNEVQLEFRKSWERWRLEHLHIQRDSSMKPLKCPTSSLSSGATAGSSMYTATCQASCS

SMILES	EC50 [1] [nM]	EC50 [2] [nM]	Activity (Mus musculus)
CC(C)C[C@H](NC(=O)[C@H](CC(C)C)NC(=O)[C@H](Cc1c[nH]c2ccccc12)NC(=O)[C@H](CCC(N)=O)NC(=O)[C@@H](NC(=O)[C@H](Cc1ccccc1)NC(=O)[C@H](CC(C)C)NC(=O)[C@H](CSCC(=O)NCCCC[C@H](NC(=O)CC[C@H](NC(=O)CC[C@H](NC(=O)COCCOCCNC(=O)CCCCCCCCCCCCCCCCCCC(=O)O)C(=O)O)C(=O)O)C(=O)O)NC(=O)[C@H](C)NC(=O)[C@H](C)NC(=O)[C@H](CCC(N)=O)NC(=O)[C@H](CCCCN)NC(=O)[C@H](CCC(=O)O)NC(=O)[C@H](CC(C)C)NC(=O)[C@H](Cc1ccc(O)cc1)NC(=O)[C@H](Cc1ccc(O)cc1)NC(=O)[C@H](CO)NC(=O)[C@H](Cc1ccc(O)cc1)NC(=O)[C@H](CC(=O)O)NC(=O)[C@H](CO)NC(=O)[C@@H](NC(=O)[C@H](Cc1ccccc1)NC(=O)[C@@H](NC(=O)CNC(=O)[C@H](CCC(=O)O)NC(=O)C(C)(C)NC(=O)[C@@H](N)Cc1ccc(O)cc1)[C@@H](C)O)[C@@H](C)O)C(C)C)C(=O)N[C@@H](C)C(=O)NCC(=O)NCC(=O)N1CCC[C@H]1C(=O)N[C@@H](CO)C(=O)N[C@@H](CO)C(=O)NCC(=O)N[C@@H](C)C(=O)N1CCC[C@H]1C(=O)N1CCC[C@H]1C(=O)N1CCC[C@H]1C(=O)N[C@@H](CO)C(N)=O (H-Y[Aib]EGTFTSDYSYYLEKQAAC(X4)LFVQWLLAGGPSSGAPPPS-NH2)	0.73	1.25	Active
CC(C)C[C@H](NC(=O)[C@H](CC(C)C)NC(=O)[C@H](Cc1c[nH]c2ccccc12)NC(=O)[C@H](CSCC(=O)NCCCC[C@H](NC(=O)CC[C@H](NC(=O)CC[C@H](NC(=O)COCCOCCNC(=O)CCCCCCCCCCCCCCCCCCC(=O)O)C(=O)O)C(=O)O)C(=O)O)NC(=O)[C@@H](NC(=O)[C@H](Cc1ccccc1)NC(=O)[C@H](CC(C)C)NC(=O)[C@H](CCCCN)NC(=O)[C@H](C)NC(=O)[C@H](C)NC(=O)[C@H](CCC(N)=O)NC(=O)[C@H](CCCCN)NC(=O)[C@H](CCC(=O)O)NC(=O)[C@H](CC(C)C)NC(=O)[C@H](Cc1ccc(O)cc1)NC(=O)[C@H](Cc1ccc(O)cc1)NC(=O)[C@H](CO)NC(=O)[C@H](Cc1ccc(O)cc1)NC(=O)[C@H](CC(=O)O)NC(=O)[C@H](CO)NC(=O)[C@@H](NC(=O)[C@H](Cc1ccccc1)NC(=O)[C@@H](NC(=O)CNC(=O)[C@H](CCC(=O)O)NC(=O)C(C)(C)NC(=O)[C@@H](N)Cc1ccc(O)cc1)[C@@H](C)O)[C@@H](C)O)C(C)C)C(=O)N[C@@H](C)C(=O)NCC(=O)NCC(=O)N1CCC[C@H]1C(=O)N[C@@H](CO)C(=O)N[C@@H](CO)C(=O)NCC(=O)N[C@@H](C)C(=O)N1CCC[C@H]1C(=O)N1CCC[C@H]1C(=O)N1CCC[C@H]1C(=O)N[C@@H](CO)C(N)=O (H-Y[Aib]EGTFTSDYSYYLEKQAAKLFVC(X4)WLLAGGPSSGAPPPS-NH2)	1.12	0.44	Active
CC(C)C[C@H](NC(=O)[C@H](CC(C)C)NC(=O)[C@H](Cc1c[nH]c2ccccc12)NC(=O)[C@H](CCC(N)=O)NC(=O)[C@@H](NC(=O)[C@H](Cc1ccccc1)NC(=O)[C@H](CC(C)C)NC(=O)[C@H](CSCC(=O)NCCCC[C@H](NC(=O)CC[C@H](NC(=O)CC[C@H](NC(=O)COCCOCCNC(=O)CCCCCCCCCCCCCCCCC(=O)O)C(=O)O)C(=O)O)C(=O)O)NC(=O)[C@H](C)NC(=O)[C@H](C)NC(=O)[C@H](CCC(N)=O)NC(=O)[C@H](CCCCN)NC(=O)[C@H](CCC(=O)O)NC(=O)[C@H](CC(C)C)NC(=O)[C@H](Cc1ccc(O)cc1)NC(=O)[C@H](Cc1ccc(O)cc1)NC(=O)[C@H](CO)NC(=O)[C@H](Cc1ccc(O)cc1)NC(=O)[C@H](CC(=O)O)NC(=O)[C@H](CO)NC(=O)[C@@H](NC(=O)[C@H](Cc1ccccc1)NC(=O)[C@@H](NC(=O)CNC(=O)[C@H](CCC(=O)O)NC(=O)C(C)(C)NC(=O)[C@@H](N)Cc1ccc(O)cc1)[C@@H](C)O)[C@@H](C)O)C(C)C)C(=O)N[C@@H](C)C(=O)NCC(=O)NCC(=O)N1CCC[C@H]1C(=O)N[C@@H](CO)C(=O)N[C@@H](CO)C(=O)NCC(=O)N[C@@H](C)C(=O)N1CCC[C@H]1C(=O)N1CCC[C@H]1C(=O)N1CCC[C@H]1C(=O)N[C@@H](CO)C(N)=O (H-Y[Aib]EGTFTSDYSYYLEKQAAC(X3)LFVQWLLAGGPSSGAPPPS-NH2)	0.67	1.02	Active
CC(C)C[C@H](NC(=O)[C@H](CC(C)C)NC(=O)[C@H](Cc1c[nH]c2ccccc12)NC(=O)[C@H](CCC(N)=O)NC(=O)[C@@H](NC(=O)[C@H](Cc1ccccc1)NC(=O)[C@H](CC(C)C)NC(=O)[C@H](CCCCN)NC(=O)[C@H](C)NC(=O)[C@H](C)NC(=O)[C@H](CCC(N)=O)NC(=O)[C@H](CCCCN)NC(=O)[C@H](CCC(=O)O)NC(=O)[C@H](CC(C)C)NC(=O)[C@H](CSCC(=O)NCCCC[C@H](NC(=O)CC[C@H](NC(=O)CC[C@H](NC(=O)COCCOCCNC(=O)CCCCCCCCCCCCCCCCCCC(=O)O)C(=O)O)C(=O)O)C(=O)O)NC(=O)[C@H](Cc1ccc(O)cc1)NC(=O)[C@H](CO)NC(=O)[C@H](Cc1ccc(O)cc1)NC(=O)[C@H](CC(=O)O)NC(=O)[C@H](CO)NC(=O)[C@@H](NC(=O)[C@H](Cc1ccccc1)NC(=O)[C@@H](NC(=O)CNC(=O)[C@H](CCC(=O)O)NC(=O)C(C)(C)NC(=O)[C@@H](N)Cc1ccc(O)cc1)[C@@H](C)O)[C@@H](C)O)C(C)C)C(=O)N[C@@H](C)C(=O)NCC(=O)NCC(=O)N1CCC[C@H]1C(=O)N[C@@H](CO)C(=O)N[C@@H](CO)C(=O)NCC(=O)N[C@@H](C)C(=O)N1CCC[C@H]1C(=O)N1CCC[C@H]1C(=O)N1CCC[C@H]1C(=O)N[C@@H](CO)C(N)=O (H-Y[Aib]EGTFTSDYSYC(X4)LEKQAAKLFVQWLLAGGPSSGAPPPS-NH2)	0.064	0.25	Active
CC(C)C[C@H](NC(=O)[C@H](CC(C)C)NC(=O)[C@H](Cc1c[nH]c2ccccc12)NC(=O)[C@H](CSCC(=O)NCCCC[C@H](NC(=O)CC[C@H](NC(=O)CC[C@H](NC(=O)COCCOCCNC(=O)CCCCCCCCCCCCCCCCC(=O)O)C(=O)O)C(=O)O)C(=O)O)NC(=O)[C@@H](NC(=O)[C@H](Cc1ccccc1)NC(=O)[C@H](CC(C)C)NC(=O)[C@H](CCCCN)NC(=O)[C@H](C)NC(=O)[C@H](C)NC(=O)[C@H](CCC(N)=O)NC(=O)[C@H](CCCCN)NC(=O)[C@H](CCC(=O)O)NC(=O)[C@H](CC(C)C)NC(=O)[C@H](Cc1ccc(O)cc1)NC(=O)[C@H](Cc1ccc(O)cc1)NC(=O)[C@H](CO)NC(=O)[C@H](Cc1ccc(O)cc1)NC(=O)[C@H](CC(=O)O)NC(=O)[C@H](CO)NC(=O)[C@@H](NC(=O)[C@H](Cc1ccccc1)NC(=O)[C@@H](NC(=O)CNC(=O)[C@H](CCC(=O)O)NC(=O)C(C)(C)NC(=O)[C@@H](N)Cc1ccc(O)cc1)[C@@H](C)O)[C@@H](C)O)C(C)C)C(=O)N[C@@H](C)C(=O)NCC(=O)NCC(=O)N1CCC[C@H]1C(=O)N[C@@H](CO)C(=O)N[C@@H](CO)C(=O)NCC(=O)N[C@@H](C)C(=O)N1CCC[C@H]1C(=O)N1CCC[C@H]1C(=O)N1CCC[C@H]1C(=O)N[C@@H](CO)C(N)=O (H-Y[Aib]EGTFTSDYSYYLEKQAAKLFVC(X3)WLLAGGPSSGAPPPS-NH2)	0.46	0.29	
CC(C)C[C@H](NC(=O)[C@H](CC(C)C)NC(=O)[C@H](Cc1c[nH]c2ccccc12)NC(=O)[C@H](CSCC(=O)NCCCC[C@H](NC(=O)COCCOCCNC(=O)COCCOCCNC(=O)CC[C@H](NC(=O)CCCCCCCCCCCCCCCCCCC(=O)O)C(=O)O)C(=O)O)NC(=O)[C@@H](NC(=O)[C@H](Cc1ccccc1)NC(=O)[C@H](CC(C)C)NC(=O)[C@H](CCCCN)NC(=O)[C@H](C)NC(=O)[C@H](C)NC(=O)[C@H](CCC(N)=O)NC(=O)[C@H](CCCCN)NC(=O)[C@H](CCC(=O)O)NC(=O)[C@H](CC(C)C)NC(=O)[C@H](Cc1ccc(O)cc1)NC(=O)[C@H](Cc1ccc(O)cc1)NC(=O)[C@H](CO)NC(=O)[C@H](Cc1ccc(O)cc1)NC(=O)[C@H](CC(=O)O)NC(=O)[C@H](CO)NC(=O)[C@@H](NC(=O)[C@H](Cc1ccccc1)NC(=O)[C@@H](NC(=O)CNC(=O)[C@H](CCC(=O)O)NC(=O)C(C)(C)NC(=O)[C@@H](N)Cc1ccc(O)cc1)[C@@H](C)O)[C@@H](C)O)C(C)C)C(=O)N[C@@H](C)C(=O)NCC(=O)NCC(=O)N1CCC[C@H]1C(=O)N[C@@H](CO)C(=O)N[C@@H](CO)C(=O)NCC(=O)N[C@@H](C)C(=O)N1CCC[C@H]1C(=O)N1CCC[C@H]1C(=O)N1CCC[C@H]1C(=O)N[C@@H](CO)C(N)=O (H-Y[Aib]EGTFTSDYSYYLEKQAAKLFVC(X5)WLLAGGPSSGAPPPS-NH2)	3.73	0.89	

Reference: ChEMBL document CHEMBL5576038, “Design of a novel long-acting dual GLP-1/GIP receptor agonist” (Bioorg Med Chem, 2024)
